Data: patent US11780893B2, “Kv1.3 blockers” (Zealand Pharma A/S, priority 2019, dated 2023)
Where two headings read alike, the source gives them in different places. Bridge positions count the residues as written; N and C are the ends. Square brackets hold non-standard residues; d marks the D form. Peptide text beside a SMILES is read from it. Phe(4-NO2) = N[C@@H](Cc1ccc([N+](=O)[O-])cc1)C(=O)O; Phe(4-Me) = Cc1ccc(C[C@H](N)C(=O)O)cc1; Nle = CCCC[C@H](N)C(=O)O

Columns and labels:
[1] = target: T1, human Kv1.3 voltage-gated K+ channel (Homo sapiens, UniProt P22001); assay: cell-based; conditions: inhibition of thallium flux, CHO-DUKX cells with human Kv1.3; read-out: IC50
T1 construct: host or cells: CHO-DUKX

Rat whole blood = Rat whole blood (Rattus norvegicus, UniProt P15384)
[2] = inhibition of IL-17A release, thapsigargin, 24 Hr, at least 2 replicates

T1 sequence (P22001 whole entry): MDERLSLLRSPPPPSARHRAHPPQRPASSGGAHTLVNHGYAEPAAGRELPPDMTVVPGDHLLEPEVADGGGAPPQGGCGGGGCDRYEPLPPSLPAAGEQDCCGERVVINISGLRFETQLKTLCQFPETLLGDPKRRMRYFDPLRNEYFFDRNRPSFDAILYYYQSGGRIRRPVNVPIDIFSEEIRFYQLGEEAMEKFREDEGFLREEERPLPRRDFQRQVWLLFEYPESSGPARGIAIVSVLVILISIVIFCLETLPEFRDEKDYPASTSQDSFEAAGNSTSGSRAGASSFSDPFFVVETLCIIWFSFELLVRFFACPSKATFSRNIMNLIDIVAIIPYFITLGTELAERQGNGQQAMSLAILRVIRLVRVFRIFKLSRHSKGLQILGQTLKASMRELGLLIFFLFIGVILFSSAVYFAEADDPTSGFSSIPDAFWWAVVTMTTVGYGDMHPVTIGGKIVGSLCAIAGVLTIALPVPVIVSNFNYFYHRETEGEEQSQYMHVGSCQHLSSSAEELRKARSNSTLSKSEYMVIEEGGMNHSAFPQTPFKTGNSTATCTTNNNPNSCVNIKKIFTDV
Chain of Rat whole blood (P15384 whole entry): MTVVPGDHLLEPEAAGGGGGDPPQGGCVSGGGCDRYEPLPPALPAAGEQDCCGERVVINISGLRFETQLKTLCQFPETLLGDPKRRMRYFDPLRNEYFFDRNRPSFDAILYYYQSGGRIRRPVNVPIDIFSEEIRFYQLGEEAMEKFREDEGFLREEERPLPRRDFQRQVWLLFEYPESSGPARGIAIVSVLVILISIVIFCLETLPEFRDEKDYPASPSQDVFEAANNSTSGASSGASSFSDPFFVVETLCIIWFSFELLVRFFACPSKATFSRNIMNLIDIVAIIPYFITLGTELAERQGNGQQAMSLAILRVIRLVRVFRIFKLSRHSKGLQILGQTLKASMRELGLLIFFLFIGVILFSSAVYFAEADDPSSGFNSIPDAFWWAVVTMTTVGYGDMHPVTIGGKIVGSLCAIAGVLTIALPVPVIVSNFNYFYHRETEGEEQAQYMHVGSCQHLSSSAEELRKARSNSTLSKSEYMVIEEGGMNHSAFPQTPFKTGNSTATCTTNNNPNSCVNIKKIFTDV

Question: What does the source list for CC[C@H](C)[C@@H]1NC(=O)[C@H](C)NC(=O)[C@H](CCCCN)NC(=O)[C@H](CC(C)C)NC(=O)[C@@H]2CSSC[C@@H](C(=O)N[C@@H](Cc3ccc(O)cc3)C(=O)N3CCC[C@H]3C(=O)N[C@@H](CCCNC(=N)N)C(N)=O)NC(=O)[C@H](C(C)C)NC(=O)[C@@H]3CSSC[C@H](NC(=O)[C@H](CCC(=O)O)NC(=O)[C@H](C(C)C)NC(=O)[C@H](CO)NC(=O)[C@H](C)NC(=O)[C@H](CO)NC(=O)[C@@H](NC(=O)[C@H](CCCNC(=N)N)NC(=O)[C@H](CCSC)NC(=O)[C@H](CC(=O)O)NC(=O)[C@H](CCSC)NC(=O)[C@@H](N)CC(N)=O)CSSC[C@H](NC(=O)[C@H](CCCCN)NC(=O)CNC(=O)[C@H](Cc4ccccc4)NC(=O)[C@H]([C@@H](C)CC)NC(=O)[C@H](CO)NC(=O)CNC1=O)C(=O)N[C@@H](CCSC)C(=O)N[C@@H](CC(N)=O)C(=O)N[C@@H](CCCCN)C(=O)N[C@@H](CCCCN)C(=O)N3)C(=O)N[C@@H](CCCCN)C(=O)N[C@@H](CCC(N)=O)C(=O)N[C@@H](CCCCN)C(=O)N2 [Compound 38] (H-NMDMRCSASVECKQKCLKAIGSIFGKCMNKKCVCYPR-NH2; disulfide 6-27, 12-32, 16-34)?
Answer: IC50 [1]: 460 pM; IC50 (Rat whole blood; [2]): 2800 pM

Question: For CCCC[C@H](NC(=O)[C@H](CC(=O)O)NC(=O)[C@H](CCCC)NC(=O)[C@@H](N)CO)C(=O)N[C@@H](CCCNC(=N)N)C(=O)N[C@H]1CSSC[C@@H]2NC(=O)[C@H](CCCCN)NC(=O)CNC(=O)[C@H](Cc3ccccc3)NC(=O)[C@H]([C@@H](C)CC)NC(=O)[C@H](CO)NC(=O)CNC(=O)[C@H]([C@@H](C)CC)NC(=O)[C@H](C)NC(=O)[C@H](CCCCN)NC(=O)[C@H](CC(C)C)NC(=O)[C@@H]3CSSC[C@@H](C(=O)N[C@@H](Cc4ccc([N+](=O)[O-])cc4)C(=O)N4CCC[C@H]4C(=O)N[C@@H](CCCNC(=N)N)C(N)=O)NC(=O)[C@H](CCCCN)NC(=O)[C@H](CSSC[C@H](NC(=O)[C@H](CCC(=O)O)NC(=O)[C@H](C(C)C)NC(=O)[C@H](CO)NC(=O)[C@H](C)NC(=O)[C@H](CO)NC1=O)C(=O)N[C@@H](CCCCN)C(=O)N[C@@H](CCC(N)=O)C(=O)N[C@@H](CCCCN)C(=O)N3)NC(=O)[C@H](CCCCN)NC(=O)[C@H](CCCCN)NC(=O)[C@H](CC(N)=O)NC(=O)[C@H](CCSC)NC2=O [Compound 92] (H-S[Nle]D[Nle]RCSASVECKQKCLKAIGSIFGKCMNKKCKC[Phe(4-NO2)]PR-NH2; disulfide 6-27, 12-32, 16-34), which IC50 [1] is on record?
Answer: The IC50 was 490 pM.

Question: And the IC50 (Rat whole blood; [2])?
Answer: Its IC50 is 1300 pM.

Question: For CCCC[C@@H]1NC(=O)[C@@H]2CSSC[C@H](NC(=O)[C@H](CCCNC(=N)N)NC(=O)[C@@H](N)CC(C)C)C(=O)N[C@@H](CO)C(=O)N[C@@H](C)C(=O)N[C@@H](CO)C(=O)N[C@@H](C(C)C)C(=O)N[C@@H](CCC(=O)O)C(=O)N[C@H]3CSSC[C@H](NC(=O)[C@H](CCCCN)NC(=O)[C@H](CCCCN)NC(=O)[C@H](CC(N)=O)NC1=O)C(=O)N[C@@H](CCCCN)C(=O)N[C@H](C(=O)N[C@@H](Cc1ccc(O)cc1)C(=O)N1CCC[C@H]1C(=O)N[C@@H](CCCNC(=N)N)C(=O)O)CSSC[C@H](NC(=O)[C@H](CCCCN)NC(=O)[C@H](CCC(N)=O)NC(=O)[C@H](CCCCN)NC3=O)C(=O)N[C@@H](CC(C)C)C(=O)N[C@@H](CCCCN)C(=O)N[C@@H](C)C(=O)N[C@@H]([C@@H](C)CC)C(=O)NCC(=O)N[C@@H](CO)C(=O)N[C@@H]([C@@H](C)CC)C(=O)N[C@@H](Cc1ccccc1)C(=O)NCC(=O)N[C@@H](CCCCN)C(=O)N2 [Compound 114] (H-LRCSASVECKQKCLKAIGSIFGKC[Nle]NKKCKCYPR-OH; disulfide 3-24, 9-29, 13-31), which IC50 [1] is on record?
Answer: The IC50 was 390 pM.

Question: What about the IC50 (Rat whole blood; [2]) of the same compound?
Answer: Its IC50 is 2100 pM.

Question: For CCCC[C@@H]1NC(=O)[C@@H]2CSSC[C@H](NC(=O)[C@H](CCCNC(=N)N)NC(=O)[C@H](CCCC)NC(=O)[C@H](CC(=O)O)NC(=O)[C@H](CCCC)NC(=O)[C@@H](N)CC(N)=O)C(=O)N[C@@H](CO)C(=O)N[C@@H](C)C(=O)N[C@@H](CO)C(=O)N[C@@H](C(C)C)C(=O)N[C@@H](CCC(=O)O)C(=O)N[C@H]3CSSC[C@H](NC(=O)[C@H](CCCCN)NC(=O)[C@H](CCCCN)NC(=O)[C@H](CC(N)=O)NC1=O)C(=O)N[C@@H](CCCCN)C(=O)N[C@H](C(=O)N[C@@H](Cc1ccc(O)cc1)C(=O)N1CCC[C@H]1C(=O)N[C@@H](CCCNC(=N)N)C(N)=O)CSSC[C@H](NC(=O)[C@H](CCCCN)NC(=O)[C@H](CCC(N)=O)NC(=O)[C@H](CCC(N)=O)NC3=O)C(=O)N[C@@H](CC(C)C)C(=O)N[C@@H](CCCCN)C(=O)N[C@@H](C)C(=O)N[C@@H]([C@@H](C)CC)C(=O)NCC(=O)N[C@@H](CO)C(=O)N[C@@H]([C@@H](C)CC)C(=O)N[C@@H](Cc1ccccc1)C(=O)NCC(=O)N[C@@H](CCCCN)C(=O)N2 [Compound 44] (H-N[Nle]D[Nle]RCSASVECQQKCLKAIGSIFGKC[Nle]NKKCKCYPR-NH2; disulfide 6-27, 12-32, 16-34), which IC50 [1] is on record?
Answer: The IC50 was 130 pM.

Question: And the IC50 (Rat whole blood; [2])?
Answer: The IC50 was 1100 pM.

Question: Which IC50 [1] does the source give for CCCC[C@H](NC(=O)[C@H](CC(=O)O)NC(=O)[C@H](CCCC)NC(=O)[C@@H](N)CO)C(=O)N[C@@H](CCCNC(=N)N)C(=O)N[C@H]1CSSC[C@@H]2NC(=O)[C@H](CCCCN)NC(=O)CNC(=O)[C@H](Cc3ccccc3)NC(=O)[C@H]([C@@H](C)CC)NC(=O)[C@H](CO)NC(=O)CNC(=O)[C@H]([C@@H](C)CC)NC(=O)[C@H](C)NC(=O)[C@H](CCCCN)NC(=O)[C@H](CC(C)C)NC(=O)[C@@H]3CSSC[C@@H](C(=O)N[C@@H](Cc4ccc(C)cc4)C(=O)N4CCC[C@H]4C(=O)N[C@@H](CCCNC(=N)N)C(N)=O)NC(=O)[C@H](CCCCN)NC(=O)[C@H](CSSC[C@H](NC(=O)[C@H](CCC(=O)O)NC(=O)[C@H](C(C)C)NC(=O)[C@H](CO)NC(=O)[C@H](C)NC(=O)[C@H](CO)NC1=O)C(=O)N[C@@H](CCCCN)C(=O)N[C@@H](CCC(N)=O)C(=O)N[C@@H](CCCCN)C(=O)N3)NC(=O)[C@H](CCCCN)NC(=O)[C@H](CCCCN)NC(=O)[C@H](CC(N)=O)NC(=O)[C@H](CCSC)NC2=O [Compound 93] (H-S[Nle]D[Nle]RCSASVECKQKCLKAIGSIFGKCMNKKCKC[Phe(4-Me)]PR-NH2; disulfide 6-27, 12-32, 16-34) here?
Answer: The IC50 was 130 pM.

Question: What about the IC50 (Rat whole blood; [2]) of the same compound?
Answer: Its IC50 is 540 pM.

Question: What does the source list for CCCC[C@H](NC(=O)[C@@H]1CCCN1)C(=O)N[C@@H](CC(=O)O)C(=O)N[C@@H](CCCC)C(=O)N[C@@H](CCCNC(=N)N)C(=O)N[C@H]1CSSC[C@@H]2NC(=O)[C@H](CCCCN)NC(=O)CNC(=O)[C@H](Cc3ccccc3)NC(=O)[C@H]([C@@H](C)CC)NC(=O)[C@@H]3CSSC[C@@H](C(=O)O)NC(=O)[C@@H]4CCCN4C(=O)[C@H](Cc4ccc(O)cc4)NC(=O)[C@@H]4CSSC[C@H](NC(=O)[C@H](CCCCN)NC(=O)[C@H](CCC(N)=O)NC(=O)[C@H](CCCCN)NC(=O)[C@H](CSSC[C@H](NC(=O)[C@H](CCCCN)NC(=O)[C@H](CCCCN)NC(=O)[C@H](CC(N)=O)NC(=O)[C@H](CCCC)NC2=O)C(=O)N[C@@H](CCCCN)C(=O)N4)NC(=O)[C@H](CCC(=O)O)NC(=O)[C@H](C(C)C)NC(=O)[C@H](CO)NC(=O)[C@H](C)NC(=O)[C@H](CO)NC1=O)C(=O)N[C@@H](CC(C)C)C(=O)N[C@@H](CCCCN)C(=O)N[C@@H](C)C(=O)N[C@@H]([C@@H](C)CC)C(=O)NCC(=O)N3 [Compound 88] (H-P[Nle]D[Nle]RCSASVECKQKCLKAIGCIFGKC[Nle]NKKCKCYPC-OH; disulfide 6-27, 12-32, 16-34, 22-37)?
Answer: IC50 [1]: 270 pM; IC50 (Rat whole blood; [2]): 1100 pM

Question: Which IC50 [1] does the source give for CCCC[C@@H]1NC(=O)[C@@H]2CSSC[C@H](NC(=O)[C@H](CCCNC(=N)N)NC(=O)[C@H](CCCC)NC(=O)[C@H](CC(=O)O)NC(=O)[C@H](CCCC)NC(=O)[C@@H](N)CO)C(=O)N[C@@H](CO)C(=O)N[C@@H](C)C(=O)N[C@@H](CO)C(=O)N[C@@H](C(C)C)C(=O)N[C@@H](CCC(=O)O)C(=O)N[C@H]3CSSC[C@H](NC(=O)[C@H](CCCCN)NC(=O)[C@H](CCCCN)NC(=O)[C@H](CC(N)=O)NC1=O)C(=O)N[C@@H](CCCCN)C(=O)N[C@H](C(=O)N[C@@H](Cc1ccc(O)cc1)C(=O)N1CCC[C@H]1C(=O)N[C@@H](CCCNC(=N)N)C(=O)O)CSSC[C@H](NC(=O)[C@H](CCCCN)NC(=O)[C@H](CCC(N)=O)NC(=O)[C@H](CCCCN)NC3=O)C(=O)N[C@@H](CC(C)C)C(=O)N[C@@H](CCCCN)C(=O)N[C@@H](C)C(=O)N[C@@H]([C@@H](C)CC)C(=O)NCC(=O)N[C@@H](CO)C(=O)N[C@@H]([C@@H](C)CC)C(=O)N[C@@H](Cc1ccccc1)C(=O)NCC(=O)N[C@@H](CCCCN)C(=O)N2 [Compound 82] (H-S[Nle]D[Nle]RCSASVECKQKCLKAIGSIFGKC[Nle]NKKCKCYPR-OH; disulfide 6-27, 12-32, 16-34) here?
Answer: Its IC50 is 490 pM.

Question: And the IC50 (Rat whole blood)?
Answer: The IC50 was no more than 1000 pM.

Question: What about the IC50 (Rat whole blood; [2]) of the same compound?
Answer: The IC50 was 520 pM.

Question: CCCC[C@@H]1NC(=O)[C@@H]2CSSC[C@H](NC(=O)[C@H](CCCNC(=N)N)NC(=O)[C@H](CCCC)NC(=O)[C@H](CC(=O)O)NC(=O)[C@H](CCCC)NC(=O)[C@@H](N)CO)C(=O)N[C@@H](CO)C(=O)N[C@@H](C)C(=O)N[C@@H](CO)C(=O)N[C@@H](C(C)C)C(=O)N[C@@H](CCC(=O)O)C(=O)N[C@H]3CSSC[C@H](NC(=O)[C@H](CCCCN)NC(=O)[C@H](CCCCN)NC(=O)[C@H](CC(N)=O)NC1=O)C(=O)N[C@@H](CCCCN)C(=O)N[C@H](C(=O)N[C@@H](Cc1ccc(O)cc1)C(=O)N1CCC[C@H]1C(=O)N[C@@H](CCCNC(=N)N)C(N)=O)CSSC[C@H](NC(=O)[C@H](CCCCN)NC(=O)[C@H](CCC(=O)O)NC(=O)[C@H](CCCCN)NC3=O)C(=O)N[C@@H](CC(C)C)C(=O)N[C@@H](CCC(N)=O)C(=O)N[C@@H](C)C(=O)N[C@@H]([C@@H](C)CC)C(=O)NCC(=O)N[C@@H](CO)C(=O)N[C@@H]([C@@H](C)CC)C(=O)N[C@@H](Cc1ccccc1)C(=O)NCC(=O)N[C@@H](CCCCN)C(=O)N2 [Compound 84] (H-S[Nle]D[Nle]RCSASVECKEKCLQAIGSIFGKC[Nle]NKKCKCYPR-NH2; disulfide 6-27, 12-32, 16-34) was tested. Which IC50 [1] did it give?
Answer: Its IC50 is 84 pM.

Question: What about the IC50 (Rat whole blood) of the same compound?
Answer: The IC50 was no more than 1000 pM.

Question: What about the IC50 (Rat whole blood; [2]) of the same compound?
Answer: The IC50 was 690 pM.
